According to paper PMC11218202, “Targeting of 3D oral cancer spheroids by αVβ6 integrin using near-infrared peptide-conjugated IRDye 680” (Cancer Cell International, 2024):

Legend:
HSC-3 cells [1] = assay: Internalization studies in HSC-3 monolayers (4 °C vs 37 °C, endocytosis inhibitors), flow cytometry; format: cell-based, human; conditions: for reduction of cellular uptake of IRDye-A20 by endocytosis inhibitor: HSC-3 cells pre-incubated 30 min with Genistein 400 µM, Chlorpromazin or EIPA 100 µM, then IRDye-A20 500 nM for 3 h, n = 3–4
H10 HSC-3 spheroids = assay: Accumulation in homotypic H10 (HSC-3) spheroids, flow cytometry; format: cell-based, human
HSC-3 cells [2] = conditions: 24 h, 0.1–4 µM, serum-free medium, highest concentration 4 µM, p > 0.05
Description: (§1) Cells were seeded into 96-well plates (100 µL, 4.10^4 cells/mL) for 5 days, then culture medium was replaced with 0.1–4 µM of IRDye-conjugates diluted in serum-free medium for 24 h at 37 °C. Afterwards, cells were washed, fixed with 70% ethanol for 10 min and further incubated with 0.2% crystal violet in 20% ethanol for 15 min. After several washes, crystal violet was solubilized using 0.1% acetic acid and 50% ethanol and optical density was recorded at 540 nm with Multiskan microplate readers (Ascent, Labsystems). Cell viability was calculated by normalizing to that of the control condition.

MRC-5 cells = conditions: 24 h, 0.1–4 µM, serum-free medium, highest concentration 4 µM, p > 0.05
Description: as §1

Q: With CGGGSGGGSLRDQTGLKNPVQLARVAV [IRDye-Scr] as the molecule, how does the “inhibition of internalization at 4 °C versus 37 °C” value (HSC-3 cells [1]; HSC-3 monolayers, 3 h, 1-500 nM, n = 4) read?
A: Its value is “significant inhibition of internalization at 4 °C was observed only at the highest concentrations”.

Q: What about the “MFI, fold less compared to IRDye-A20” value (H10 HSC-3 spheroids; 100 nM, 24 h) of the same molecule?
A: Its value is 20 fold.

Q: What about the “percentage of labeled cells” value (H10 HSC-3 spheroids; 3 h, maximum over 1-250 nM, n = 4–5) of the same molecule?
A: Its value is 3%.

Q: And the “percentage of labeled cells” value (H10 HSC-3 spheroids; 6 h, maximum over 1-250 nM, n = 4–5)?
A: Its value is 7%.

Q: And the “percentage of labeled cells” value (H10 HSC-3 spheroids; 24 h, 50 nM)?
A: The value was at most 3%.

Q: What about the “percentage of labeled cells” value (H10 HSC-3 spheroids; 24 h, 100 nM) of the same molecule?
A: Its value is 11%.

Q: And the “percentage of labeled cells” value (H10 HSC-3 spheroids; 24 h, 250 nM)?
A: Its value is 45%.

Q: What about the “loss of viability (crystal violet)” value (HSC-3 cells [2]) of the same molecule?
A: The value was “Loss of viability was not detected”.

Q: And the “loss of viability (crystal violet)” value (MRC-5 cells)?
A: The value was “Loss of viability was not detected”.

Q: `CCN(c1nc(N)c(C(=O)N=C(N)N)nc1Cl)C(C)C` [EIPA, (5-(N-Ethyl-N-isopropyl)-Amiloride)] was tested. Which “reduction of cellular uptake of IRDye-A20 by endocytosis inhibitor” value (from here on “reduction … by endocytosis inhibitor”) (HSC-3 cells [1]) did it give?
A: Its value is “not affected”.

Q: Which “reduction … by endocytosis inhibitor” value (HSC-3 cells [1]) does the source give for `CN(C)CCCN1c2ccccc2Sc2ccc(Cl)cc21` [chlorpromazine, Chlorpromazin] here?
A: The value was “not affected”.

Q: How did the “reduction … by endocytosis inhibitor” value (HSC-3 cells [1]) turn out when `O=c1c(-c2ccc(O)cc2)coc2cc(O)cc(O)c12` [genistein, Genistein] was run?
A: The value was 30%.
